Experimental findings from ChEMBL document CHEMBL3044717, “Synthesis and QSAR modeling 1-[3-methyl-2-(aryldiazenyl)-2H-aziren-2-yl]ethanones as potential antibacterial agents” (2013) are described below.

Holding throughout (assay type): functional
For one experiment, the system named is Staphylococcus aureus. Nature of the experiment: Antibacterial activity against Staphylococcus aureus ATCC 2943 assessed as growth inhibition after 16-24 hr by two-fold serial dilution method.
Another experiment has as its system Bacillus subtilis. Description: Antibacterial activity against Bacillus subtilis ATCC 6633 assessed as growth inhibition after 16-24 hr by two-fold serial dilution method.
The next experiment deals with Brevundimonas diminuta. Description: Antibacterial activity against Brevundimonas diminuta MTCC 3361 assessed as growth inhibition after 16-24 hr by two-fold serial dilution method.
The subject of a further experiment is Escherichia coli. Nature of the experiment: Antibacterial activity against Escherichia coli ATCC 13607 assessed as growth inhibition after 16-24 hr by two-fold serial dilution method.

Take `CC(=O)C1(/N=N/c2ccccc2Cl)N=C1C` (configuration not stated): the “-logMIC” value is recorded as 4.317 in the experiment with Staphylococcus aureus, 4.348 with Bacillus subtilis and 4.354 in the experiment on Brevundimonas diminuta.
Turning to `CC(=O)C1(/N=N/c2cccc(C(=O)O)c2)N=C1C` (configuration not stated), the “-logMIC” value in the experiment with Escherichia coli turned out to be 4.223; in the experiment with Staphylococcus aureus, 4.178; in the experiment on Bacillus subtilis it was 4.446; in the experiment with Brevundimonas diminuta it was 4.138.
In the case of `CC(=O)C1(/N=N/c2ccc(Br)cc2)N=C1C` (configuration not stated), the “-logMIC” value in the experiment on Escherichia coli is given as 4.414; with Staphylococcus aureus, 4.433; with Bacillus subtilis, 4.401.
Turning to `CC(=O)C1(/N=N/c2cccc(C)c2)N=C1C` (configuration not stated), the results for the “-logMIC” value in the experiment on Staphylococcus aureus and with Bacillus subtilis were 4.298 and 4.213, respectively.
`CC(=O)C1(/N=N/c2cccc(Cl)c2)N=C1C` (configuration not stated): the “-logMIC” value in the experiment with Staphylococcus aureus was determined as 4.324; with Bacillus subtilis it was 4.315; with Brevundimonas diminuta, 4.325.
On to `CC(=O)C1(/N=N/c2ccc(C(=O)O)cc2)N=C1C` (configuration not stated), for which the “-logMIC” value in the experiment on Escherichia coli turned out to be 4.341; with Staphylococcus aureus it was 4.358; with Bacillus subtilis, 4.376; in the experiment with Brevundimonas diminuta, 4.243.
Turning to `CC(=O)C1(/N=N/c2ccc(Cl)cc2)N=C1C` (configuration not stated), the “-logMIC” value in the experiment on Staphylococcus aureus was 4.014; in the experiment with Bacillus subtilis it was 4.078; in the experiment on Brevundimonas diminuta, 4.096.
`CC(=O)C1(/N=N/c2cccc(Br)c2)N=C1C` (configuration not stated): the “-logMIC” value came to 4.441 with Escherichia coli, 4.457 in the experiment on Staphylococcus aureus and 4.425 with Bacillus subtilis.
The like results for `CC(=O)C1(/N=N/c2ccccc2C)N=C1C` (configuration not stated) were, in that order, 4.378, 4.339 and 4.378.
Take `CC(=O)C1(/N=N/c2ccc(C)cc2)N=C1C` (configuration not stated): the “-logMIC” value was determined as 4.178 with Staphylococcus aureus and 4.298 in the experiment on Bacillus subtilis.
Consider `CC(=O)C1(/N=N/c2ccc([N+](=O)[O-])cc2)N=C1C` (configuration not stated), for which the “-logMIC” value in the experiment with Escherichia coli worked out at 4.253; in the experiment with Staphylococcus aureus, 4.492; with Bacillus subtilis, 4.221; in the experiment on Brevundimonas diminuta, 4.287.
For the compound `COc1cccc(/N=N/C2(C(C)=O)N=C2C)c1` (configuration not stated), the “-logMIC” value with Staphylococcus aureus came out at 4.328; in the experiment with Bacillus subtilis, 4.366; in the experiment on Brevundimonas diminuta, 4.377.
In the case of `CC(=O)C1(/N=N/c2ccccc2)N=C1C` (configuration not stated), the “-logMIC” value in the experiment with Staphylococcus aureus is listed as 4.032; with Bacillus subtilis, 4.026; with Brevundimonas diminuta it was 4.024.
For `CC(=O)C1(/N=N/c2cccc([N+](=O)[O-])c2)N=C1C` (configuration not stated), the “-logMIC” value stood at 4.257 in the experiment with Escherichia coli, 4.421 in the experiment on Staphylococcus aureus, 4.245 in the experiment with Bacillus subtilis and 4.336 in the experiment on Brevundimonas diminuta.
Regarding `COc1ccccc1/N=N/C1(C(C)=O)N=C1C` (configuration not stated), the “-logMIC” value with Staphylococcus aureus is reported as 4.119; in the experiment on Bacillus subtilis, 4.056; in the experiment with Brevundimonas diminuta, 4.072.
